Data: patent US6479516B1, “4-arylpiperidine derivatives for the treatment of pruritus” (Pfizer Inc, priority 1999, dated 2002)

Tested on: Male Wistar rats
Test: Inhibition of hind leg scratching behaviour induced in rats by a pruritogenic agent (5-methoxytryptamine hydrochloride)
Assay type: in vivo, rat
Details: test compound by subcutaneous injection in aqueous micelle formulation; pruritogen 5-methoxytryptamine hydrochloride 4 mg/3 mL/kg s.c.; hindleg scratching score totalled after 25 minutes vs control group
Protocol: The compounds of the invention are evaluated for their activity as antipruritic agents by measuring their ability to inhibit the hind leg scratching behaviour induced in rats by the administration of a known pruritogenic agent. These studies are based on the procedure described by Berendsen and Broekkamp in the European Journal of Pharmacology, 1991, 194, 201. The test is performed as follows:
Male Wistar rats (approximately 150 g body weight) are challenged with a pruritogen by subcutaneous injection of 5-methoxytryptamine hydrochloride (4 mg/3 mL/kg) dissolved in physiological saline into the scruff of the neck. At this dose a constant and quantifiable hindleg scratching response lasting up to 90 minutes is obtained.
The test compound is administered to the test animals by subcutaneous injection in an aqueous micelle formulation. The test compound is prepared in the following manner. The compound is dissolved in a vehicle (composition v/v %: glycerol formal, 24; tween 80, 17; benzyl alcohol, 1.5 and purified water to 100) then seven parts purified water is added to three parts of the above vehicle to give the aqueous micelle formulation. […]
After the pruritogen challenge has been administered, hindleg scratching is scored for each animal by recording the presence or absence of scratching during each 30 second interval as 1 or 0 scored respectively. […]

`CCCCCCN1CC[C@@](C)(c2ccc(NC(C)=O)c(O)c2)[C@H](C)C1` (racemic) [Example 8, (±)-N-Hexyl-trans-3,4-dimethyl-4-(4-acetylamino-3-hydroxyphenyl)piperidine] was tested, and the anti-pruritic activity was “display anti-pruritic activity”.
